What was measured:
[1] = test system: male Wistar-Han rat hepatocytes; test: In vitro metabolism of Compound 1 in rat cryopreserved hepatocytes; assay type: in vitro ADME; conditions: HPLC/UV/MS; for metabolite of Compound 1 observed in rat hepatocyte incubations: 10 μM Compound 1, 7.5×10^5 cells/mL, 1 and 4 hrs composite sample; for Relative abundance of metabolite of Compound 1, Rat: rat cryopreserved hepatocytes; on Relative abundance of metabolite of Compound 1, Rat: key: ND Not detected; trace: Trace: observed by HPLC/MS measurements only; + Minor as assessed by HPLC/UV measurements; ++ moderate as assessed by HPLC/UV measurements; +++ major as assessed by HPLC/UV measurements; * m/z 593 and m/z 505 co-eluted in rabbit hepatocytes; ** m/z 591c and m/z 593 were merged in human hepatocytes and Hepatopack; *** m/z 607 and m/z 751b were merged in rabbit hepatocytes
Description: (§1) Male CD-1 mouse hepatocytes (lot YHL), male Wistar-Han rat hepatocytes (Celsis; product number: M000065; lot: SLA), female New Zealand rabbit hepatocytes (lot 1510147), male cryopreserved cynomolgus monkey hepatocytes (Celsis; product number: M00305; lot: DNB) and mixed-gender cryopreserved human hepatocytes (Bioreclamation; product number: S01988; lot: DCM) were obtained for the hepatocyte in-vitro assessments.
(§2) At time 0 hrs 550 μL aliquots were removed from incubations and quenched with 5 volumes of ACN containing 0.1% formic acid. At 1 and 4 hrs, 275 μL aliquots were removed and quenched as above; these were combined in the same tube to prepare a composite sample. For all hepatocyte experiments, samples were processed by centrifugation at 1900×g for 5 minutes, and then the supernatant was transferred to clean glass tubes and evaporated to dryness under a stream of N2 using a Turbovap at 37° C. Sample residues were reconstituted in mobile phase prior to analysis by HPLC/UV/MS^n.
(§3) Samples were analyzed by HPLC/UV/MS^n using a Thermo Orbitrap Elite mass spectrometer in conjunction with a Thermo Open Accela UHPLC system. A 3.0×150 mm, 2.5 μm Acquity CSH C18 HPLC column (Waters) was heated to 45° C. for separation of analytes. The mobile phase was a gradient of A): water containing 0.1% formic acid, and B): acetonitrile. The flow rate was 450 μL/min, and the following gradient program was utilized: […]
(§4) UV absorbance was monitored with a photo-diode array detector from 220-450 nm. The mass spectrometer was operated in positive-ion mode with a HESI ion source at a potential of 3.0 kV, and capillary and source heater temperatures of 380 and 300° C., respectively. Sheath, auxiliary, and sweep gas flows were set to 45, 10, and 2 units, respectively. Full scan mass spectra were acquired over the range 120-1200 m/z at a resolving power of 30,000 (specified at m/z 400). Data-dependent MS^n spectra were acquired in an automated fashion at 15,000 resolving power using CID and HCD fragmentation with normalized collision energy settings of 28 and 65 V, respectively.
(§5) Metabolites were characterized by comparisons of mass spectral fragmentation patterns with that of a Compound 1 standard. All HPLC/UV/MS^n data were processed using Xcalibur v. 2.2, and integrated UV peak areas were subjected to weighted UV binning procedures utilizing an Excel template.

[2] = Metabolites of Compound 1 in rat bile following a 1.0 mg/kg IV bolus dose (bile duct cannulated rat); assay type: in vivo; conditions: 1.0 mg/kg IV bolus dose of Compound 1, pooled bile 0-24 hrs, bile duct cannulated male rats
Description: (§6) Plasma and bile samples were obtained from a bile duct cannulated rat experiment (Study PK-0111) in which a 1.0 mg/kg IV bolus dose was administered to fed male rats (N=3). No control plasma was available from this experiment.
Bile samples (0-3, 3-7, and 7-24 hrs) from individual animals were pooled in proportion to the amount collect in each interval. Then 0.5 mL of each individual pool was combined to prepare a composite sample for analysis.
(§7) Pooled plasma and bile samples were extracted with ACN containing 0.1% formic acid, and after centrifugation at 1900×g, the supernatant was transferred to clean tubes and evaporated under N2 in a Turbovap set at 37° C. Residues were reconstituted in mobile phase (5:95 v:v ACN:0.1% aqueous formic acid) prior to analysis by HPLC/UV/MS^n.
as §3, §4, §5

human GLP-1R = human GLP-1R (Homo sapiens, UniProt P43220, L260F); test: CHO GLP-1R Clone C6 - Assay 2 (HTRF cAMP agonist assay, low receptor density)
Chain of human GLP-1R (P43220 24-463 L260F): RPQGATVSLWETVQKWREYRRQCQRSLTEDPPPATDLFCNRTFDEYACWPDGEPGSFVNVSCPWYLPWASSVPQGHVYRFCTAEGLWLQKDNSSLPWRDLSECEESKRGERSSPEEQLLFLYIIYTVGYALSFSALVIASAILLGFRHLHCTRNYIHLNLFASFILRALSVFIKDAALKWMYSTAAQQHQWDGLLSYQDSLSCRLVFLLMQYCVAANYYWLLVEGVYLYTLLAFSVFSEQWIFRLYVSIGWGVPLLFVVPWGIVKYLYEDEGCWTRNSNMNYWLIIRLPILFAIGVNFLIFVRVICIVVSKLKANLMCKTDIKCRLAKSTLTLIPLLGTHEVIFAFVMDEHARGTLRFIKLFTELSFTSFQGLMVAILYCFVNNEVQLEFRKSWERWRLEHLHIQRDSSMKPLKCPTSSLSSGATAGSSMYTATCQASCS
Description: GLP-1R-mediated agonist activity was determined with a cell-based functional assay utilizing an HTRF (Homogeneous Time-Resolved Fluorescence) cAMP detection kit (cAMP HI Range Assay Kit; Cis Bio cat #62AM6PEJ) that measures cAMP levels in the cell. The method is a competitive immunoassay between native cAMP produced by the cells and exogenous cAMP labeled with the dye d2. The tracer binding is visualized by a mAb anti-cAMP labeled with Cryptate. The specific signal (i.e. energy transfer) is inversely proportional to the concentration of cAMP in either a standard or an experimental sample. […]
After 48 hours, the growth media was removed from the assay plate wells, and the cells were treated with 20 μL of the serially diluted compound in assay buffer for 30 minutes at 37° C. in a humidified environment (95% O2, 5% CO2). […] The plates were then incubated at room temperature and after 60 minutes, changes in the HTRF signal were read with an Envision 2104 multi-label plate reader using excitation of 330 nm and emissions of 615 and 665 nm. Raw data were converted to nM cAMP by interpolation from a cAMP standard curve (as described in the manufacturer's assay protocol) and the percent effect was determined relative to a saturating concentration of the full agonist GLP-1 (1 μM) included on each plate. […]

[3] = test system: male cryopreserved cynomolgus monkey hepatocytes; test: In vitro metabolism of Compound 1 in monkey cryopreserved hepatocytes; assay type: in vitro ADME; conditions: HPLC/UV/MS; for metabolite of Compound 1 observed in monkey hepatocyte incubations: 10 μM Compound 1, 7.5×10^5 cells/mL, 1 and 4 hrs composite sample; for Relative abundance of metabolite of Compound 1, Monkey: monkey cryopreserved hepatocytes; on Relative abundance of metabolite of Compound 1, Monkey: key: ND Not detected; trace: Trace: observed by HPLC/MS measurements only; + Minor as assessed by HPLC/UV measurements; ++ moderate as assessed by HPLC/UV measurements; +++ major as assessed by HPLC/UV measurements; * m/z 593 and m/z 505 co-eluted in rabbit hepatocytes; ** m/z 591c and m/z 593 were merged in human hepatocytes and Hepatopack; *** m/z 607 and m/z 751b were merged in rabbit hepatocytes
Description: as §1, §2, §3, §4, §5

[4] = test system: female New Zealand rabbit hepatocytes; test: In vitro metabolism of Compound 1 in rabbit cryopreserved hepatocytes; assay type: in vitro ADME; conditions: HPLC/UV/MS; for metabolite of Compound 1 observed in rabbit hepatocyte incubations: 10 μM Compound 1, 7.5×10^5 cells/mL, 1 and 4 hrs composite sample; for Relative abundance of metabolite of Compound 1, Rabbit: rabbit cryopreserved hepatocytes; on Relative abundance of metabolite of Compound 1, Rabbit: key: ND Not detected; trace: Trace: observed by HPLC/MS measurements only; + Minor as assessed by HPLC/UV measurements; ++ moderate as assessed by HPLC/UV measurements; +++ major as assessed by HPLC/UV measurements; * m/z 593 and m/z 505 co-eluted in rabbit hepatocytes; ** m/z 591c and m/z 593 were merged in human hepatocytes and Hepatopack; *** m/z 607 and m/z 751b were merged in rabbit hepatocytes
Description: as §1, §2, §3, §4, §5

[5] = test system: mixed-gender cryopreserved human hepatocytes; test: In vitro metabolism of Compound 1 in human cryopreserved hepatocytes; assay type: in vitro ADME; conditions: HPLC/UV/MS; for metabolite of Compound 1 observed in human hepatocyte incubations: 10 μM Compound 1, 7.5×10^5 cells/mL, 1 and 4 hrs composite sample; for Relative abundance of metabolite of Compound 1, Human: human cryopreserved hepatocytes; on Relative abundance of metabolite of Compound 1, Human: key: ND Not detected; trace: Trace: observed by HPLC/MS measurements only; + Minor as assessed by HPLC/UV measurements; ++ moderate as assessed by HPLC/UV measurements; +++ major as assessed by HPLC/UV measurements; * m/z 593 and m/z 505 co-eluted in rabbit hepatocytes; ** m/z 591c and m/z 593 were merged in human hepatocytes and Hepatopack; *** m/z 607 and m/z 751b were merged in rabbit hepatocytes
Description: as §1, §2, §3, §4, §5

[6] = test system: human co-cultured hepatocytes (Hepatopack); test: In vitro metabolism of Compound 1 in human micropatterned co-cultured hepatocytes (Hepatopack); assay type: in vitro ADME; conditions: for Relative abundance of metabolite of Compound 1, Hepatopack: human co-cultured hepatocytes (Hepatopack), HPLC/UV/MS
Description: Micro-patterned co-cultured (MPCC) hepatocyte 24-well plates containing human donors (16 wells each) were provided by Ascendance Biotechnology (formerly Hepregen Corp. (Medford, Mass.). [see Wang W W W, Khetani S R, Krzyzewski S, et al. Assessment of a Micropatterned Hepatocyte Coculture System to Generate Major Human Excretory and Circulating Drug Metabolites. Drug Metab Dispos 2010; 38(10):1900-51 The MPCCs were created at Ascendance Biotechnology and maintained in serum containing medium for 5-6 days to allow for stabilization of the co-cultures prior to shipment. A mixed-gender cryopreserved pool of 10 human donors (X008001-P; lot YFA) was used to seed the plates and was purchased from BioreclamationlVT (Westbury, N.Y.). MPCC hepatocytes are plated with fibroblasts in a 1:3 ratio with ˜25,000 hepatocytes/well in a 24-well plate. 24-Well MPCC plates were shipped to Pfizer, fresh medium (400 μL/well) was applied and cultures were kept at 37° C. with […] and 95% relative humidity for two days. Micropatterned co-cultures containing pooled hepatocytes were allowed 7 days to fully stabilize with respect to liver-specific functions. […] At respective time points (0, 2, and 7 days), the culture medium was removed and mixed with 4 volumes of ACN, then stored frozen at −40° C. until samples could be analyzed. Samples were subsequently processed by the addition of 2.5 mL of 1:1 ACN:MeOH containing 0.1% formic acid. After vortexing, the samples were centrifuged at 1900×g for 5 min, then the supernatant was transferred to 15 mL conical tubes and evaporated under N2 using a Turbovap set at 37° C. The residues were reconstituted in mobile phase (5:95 v:v ACN:0.1% aqueous formic acid) prior to analysis by HPLC/UV/MS^n.
as §3
as §4, with “Data-dependent MS^n spectra were acquired in an automated fashion at 15,000 resolving power using CID and HCD fragmentation with normalized collision energy settings of 28 and 65 V, respectively.” left out

[7] = test system: Male CD-1 mouse hepatocytes; test: In vitro metabolism of Compound 1 in mouse cryopreserved hepatocytes; assay type: in vitro ADME; conditions: HPLC/UV/MS; for metabolite of Compound 1 observed in mouse hepatocyte incubations: 10 μM Compound 1, 7.5×10^5 cells/mL, 1 and 4 hrs composite sample; for Relative abundance of metabolite of Compound 1, Mouse: mouse cryopreserved hepatocytes
Description: as §1, §2, §3, §4, §5

[8] = Circulating metabolites of Compound 1 in rat plasma following a 1.0 mg/kg IV bolus dose; assay type: in vivo; conditions: 1.0 mg/kg IV bolus dose of Compound 1, pooled plasma 0.033-24 hrs, male rats
Description: as §6
Clin Pharmacol Ther 1981; 29(3):408-13]. The entire volume of each replicate Hamilton pool was combined to create a single pooled sample (576 μL) for analysis.
as §7, §3, §4, §5

Compound	metabolite of Compound 1 observed in rat hepatocyte incubations [1]	detected in rat bile [2]	detected in rat bile ([2]; listed as m/z 751b)	EC50 (human GLP-1R)	metabolite of Compound 1 observed in monkey hepatocyte incubations [3]	metabolite of Compound 1 observed in rabbit hepatocyte incubations [4]	metabolite of Compound 1 observed in human hepatocyte incubations [5]	metabolite of Compound 1 observed in human hepatocyte incubations ([5]; listed as m/z 751b)	metabolite of Compound 1 observed in human Hepatopack system ([6]; Compound 1 tris salt 20 μM, human MPCC hepatocytes, 0, 2 and 7 days)	metabolite of Compound 1 observed in mouse hepatocyte incubations [7]	detected in rat plasma [8]	detected in rat plasma ([8]; listed as m/z 751b)	Relative abundance of metabolite of Compound 1, Rat [1]	Relative abundance of metabolite of Compound 1, Monkey [3]	Relative abundance of metabolite of Compound 1, Rabbit [4]	Relative abundance of metabolite of Compound 1, Human [5]	Relative abundance of metabolite of Compound 1, Hepatopack [6]	Relative abundance of metabolite of Compound 1, Mouse [7]	detected in rat bile ([2]; listed as m/z 331)	detected in rat plasma ([8]; listed as m/z 331)
C[C@]1(c2ccc(Cl)cn2)Oc2cccc(C3CCN(Cc4nc5ccc(C(=O)O[C@@H]6O[C@H](C(=O)O)[C@@H](O)[C@H](O)[C@H]6O)cc5n4C[C@@H]4CCO4)CC3)c2O1 [Metabolite 751b]	observed	observed	detected	170 nM	observed	observed	observed	most abundant metabolites	most abundant metabolites	observed	observed	detected								
C[C@]1(c2ccc(Cl)cn2)Oc2cccc(-c3cc[n+](Cc4nc5ccc(C(=O)O)cc5n4C[C@@H]4CCO4)cc3)c2O1 [Metabolite 569]	observed				observed	observed	observed			observed			trace	trace	+	+	+	+		
CC1(c2ccc(Cl)cn2)Oc2cccc(C3CCN(Cc4nc5ccc(C(=O)OC6OC(C(=O)O)C(O)C(O)C6O)cc5n4CC4CCO4)CC3)c2O1 (centres unmarked) [Metabolite 751b]													+	+++	++	+++	++	++		
C[C@]1(c2ccc(Cl)cn2)Oc2cccc(C3CCNCC3)c2O1 [Metabolite 331]	observed	observed			observed	observed	observed			observed	observed		trace	+	trace	+	trace	+	detected	detected
